Experimental data reported in patent US11542235B2, “Herbicidal 3-azaspiro[5.5] undecane-8, 10-dione compounds” (SYNGENTA PARTICIPATIONS AG, priority 2018, dated 2023).

Experiments:
Format in all cases: in vivo
Avena fatua (AVEFA) = assay: Glasshouse herbicidal test, pre- and post-emergence, Avena fatua; conditions: 250 g/h, evaluated after 13 days, five point scale; for percentage damage caused to the plant, AVEFA POST: post-emergence; for percentage damage caused to the plant, AVEFA PRE: pre-emergence
In short: (§1)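 Pots of the weeds sprayed either 1 day after sowing (pre-emergence) or after 8 days' growth (post-emergence), at 250 g/h in acetone/water with 0.5% Tween 20. Grown in a glasshouse at 24/16° C. day/night with 14 h light and 65% humidity. Damage scored 13 days later on a 1–5 scale (5=80-100%, 1=0-19%).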

[1] = test system: Alopecurus myosuroides (ALOMY); assay: Glasshouse herbicidal test, pre- and post-emergence, Alopecurus myosuroides; conditions: 250 g/h, evaluated after 13 days, five point scale; for percentage damage caused to the plant, ALOMY POST: post-emergence; for percentage damage caused to the plant, ALOMY PRE: pre-emergence
In short: as §1

Lolium perenne (LOLPE) = assay: Glasshouse herbicidal test, pre- and post-emergence, Lolium perenne; conditions: 250 g/h, evaluated after 13 days, five point scale; for percentage damage caused to the plant, LOLPE POST: post-emergence; for percentage damage caused to the plant, LOLPE PRE: pre-emergence
In short: as §1

Setaria faberi (SETFA) = assay: Glasshouse herbicidal test, pre- and post-emergence, Setaria faberi; conditions: 250 g/h, evaluated after 13 days, five point scale; for percentage damage caused to the plant, SETFA PRE: pre-emergence; for percentage damage caused to the plant, SETFA POST: post-emergence
In short: as §1

[2] = test system: Echinochloa crus-galli (ECHCG); assay: Glasshouse herbicidal test, pre- and post-emergence, Echinochloa crus-galli; conditions: 250 g/h, evaluated after 13 days, five point scale; for percentage damage caused to the plant, ECHCG POST: post-emergence; for percentage damage caused to the plant, ECHCG PRE: pre-emergence
In short: as §1

CC#Cc1cc(C)c(C2=C(OC(C)=O)CC3(CCN(C(C)=O)CC3)CC2=O)c(C)c1 [Compound P4, [3-acetyl-9-(2,6-dimethyl-4-prop-1-ynyl-phenyl)-10-oxo-3-azaspiro[5.5]undec-8-en-8-yl] acetate]
5 (5=80-100%): percentage damage caused to the plant, AVEFA POST (Avena fatua (AVEFA)) | percentage damage caused to the plant, AVEFA PRE (Avena fatua (AVEFA)) | percentage damage caused to the plant, ALOMY POST [1] | percentage damage caused to the plant, ALOMY PRE [1] | percentage damage caused to the plant, LOLPE POST (Lolium perenne (LOLPE)) | percentage damage caused to the plant, LOLPE PRE (Lolium perenne (LOLPE)) | percentage damage caused to the plant, SETFA PRE (Setaria faberi (SETFA)) | percentage damage caused to the plant, ECHCG POST [2] | percentage damage caused to the plant, ECHCG PRE [2]

CC#Cc1cc(OC)c(C2C(=O)CC3(CCN(C(C)=O)CC3)CC2=O)c(OC)c1 [Compound A14]
5 (5=80-100%): percentage damage caused to the plant, AVEFA POST (Avena fatua (AVEFA)) | percentage damage caused to the plant, AVEFA PRE (Avena fatua (AVEFA)) | percentage damage caused to the plant, ALOMY POST [1] | percentage damage caused to the plant, ALOMY PRE [1] | percentage damage caused to the plant, LOLPE POST (Lolium perenne (LOLPE)) | percentage damage caused to the plant, LOLPE PRE (Lolium perenne (LOLPE)) | percentage damage caused to the plant, SETFA POST (Setaria faberi (SETFA)) | percentage damage caused to the plant, SETFA PRE (Setaria faberi (SETFA)) | percentage damage caused to the plant, ECHCG POST [2] | percentage damage caused to the plant, ECHCG PRE [2]

CC#Cc1cc(OC)c(C2C(=O)CC3(CCN(OC)CC3)CC2=O)c(OC)c1 [Compound A4]
5 (5=80-100%): percentage damage caused to the plant, AVEFA POST (Avena fatua (AVEFA)) | percentage damage caused to the plant, AVEFA PRE (Avena fatua (AVEFA)) | percentage damage caused to the plant, ALOMY POST [1] | percentage damage caused to the plant, ALOMY PRE [1] | percentage damage caused to the plant, LOLPE POST (Lolium perenne (LOLPE)) | percentage damage caused to the plant, LOLPE PRE (Lolium perenne (LOLPE)) | percentage damage caused to the plant, SETFA POST (Setaria faberi (SETFA)) | percentage damage caused to the plant, SETFA PRE (Setaria faberi (SETFA)) | percentage damage caused to the plant, ECHCG POST [2] | percentage damage caused to the plant, ECHCG PRE [2]

CC#Cc1cc(C)c(C2C(=O)CC3(CCN(C(=O)C(F)(F)F)CC3)CC2=O)c(C)c1 [Compound A5]
5 (5=80-100%): percentage damage caused to the plant, AVEFA POST (Avena fatua (AVEFA)) | percentage damage caused to the plant, AVEFA PRE (Avena fatua (AVEFA)) | percentage damage caused to the plant, ALOMY POST [1] | percentage damage caused to the plant, ALOMY PRE [1] | percentage damage caused to the plant, LOLPE POST (Lolium perenne (LOLPE)) | percentage damage caused to the plant, LOLPE PRE (Lolium perenne (LOLPE)) | percentage damage caused to the plant, SETFA POST (Setaria faberi (SETFA)) | percentage damage caused to the plant, SETFA PRE (Setaria faberi (SETFA)) | percentage damage caused to the plant, ECHCG POST [2] | percentage damage caused to the plant, ECHCG PRE [2]

CC#Cc1cc(C)c(C2C(=O)CC3(CCN(C(=O)CC(F)(F)F)CC3)CC2=O)c(C)c1 [Compound A25]
5 (5=80-100%): percentage damage caused to the plant, AVEFA POST (Avena fatua (AVEFA)) | percentage damage caused to the plant, AVEFA PRE (Avena fatua (AVEFA)) | percentage damage caused to the plant, ALOMY POST [1] | percentage damage caused to the plant, ALOMY PRE [1] | percentage damage caused to the plant, LOLPE POST (Lolium perenne (LOLPE)) | percentage damage caused to the plant, LOLPE PRE (Lolium perenne (LOLPE)) | percentage damage caused to the plant, SETFA POST (Setaria faberi (SETFA)) | percentage damage caused to the plant, SETFA PRE (Setaria faberi (SETFA)) | percentage damage caused to the plant, ECHCG POST [2] | percentage damage caused to the plant, ECHCG PRE [2]

CC#Cc1cc(C)c(C2C(=O)CC3(CCN(C(=O)C(F)(F)C(F)F)CC3)CC2=O)c(C)c1 [Compound A29]
5 (5=80-100%): percentage damage caused to the plant, AVEFA POST (Avena fatua (AVEFA)) | percentage damage caused to the plant, AVEFA PRE (Avena fatua (AVEFA)) | percentage damage caused to the plant, ALOMY POST [1] | percentage damage caused to the plant, ALOMY PRE [1] | percentage damage caused to the plant, LOLPE POST (Lolium perenne (LOLPE)) | percentage damage caused to the plant, LOLPE PRE (Lolium perenne (LOLPE)) | percentage damage caused to the plant, SETFA POST (Setaria faberi (SETFA)) | percentage damage caused to the plant, SETFA PRE (Setaria faberi (SETFA)) | percentage damage caused to the plant, ECHCG POST [2] | percentage damage caused to the plant, ECHCG PRE [2]

CC#Cc1cc(C)c(C2=C(OC(=O)C3CC3)CC3(CCN(C(C)=O)CC3)CC2=O)c(C)c1 [Compound P15]
5 (5=80-100%): percentage damage caused to the plant, AVEFA POST (Avena fatua (AVEFA)) | percentage damage caused to the plant, AVEFA PRE (Avena fatua (AVEFA)) | percentage damage caused to the plant, ALOMY POST [1] | percentage damage caused to the plant, ALOMY PRE [1] | percentage damage caused to the plant, LOLPE POST (Lolium perenne (LOLPE)) | percentage damage caused to the plant, LOLPE PRE (Lolium perenne (LOLPE)) | percentage damage caused to the plant, SETFA POST (Setaria faberi (SETFA)) | percentage damage caused to the plant, SETFA PRE (Setaria faberi (SETFA)) | percentage damage caused to the plant, ECHCG POST [2] | percentage damage caused to the plant, ECHCG PRE [2]

CC#Cc1cc(C)c(C2=C(O)CC3(CCN(C(C)=O)CC3)CC2=O)c(C)c1 [Compound A17]
5 (5=80-100%): percentage damage caused to the plant, AVEFA POST (Avena fatua (AVEFA)) | percentage damage caused to the plant, AVEFA PRE (Avena fatua (AVEFA)) | percentage damage caused to the plant, ALOMY POST [1] | percentage damage caused to the plant, ALOMY PRE [1] | percentage damage caused to the plant, LOLPE POST (Lolium perenne (LOLPE)) | percentage damage caused to the plant, LOLPE PRE (Lolium perenne (LOLPE)) | percentage damage caused to the plant, SETFA POST (Setaria faberi (SETFA)) | percentage damage caused to the plant, SETFA PRE (Setaria faberi (SETFA)) | percentage damage caused to the plant, ECHCG POST [2] | percentage damage caused to the plant, ECHCG PRE [2]

CC#Cc1cc(C)c(C2=C([O-])CC3(CCN(C(C)=O)CC3)CC2=O)c(C)c1.[Na+] [Compound A18]
5 (5=80-100%): percentage damage caused to the plant, AVEFA POST (Avena fatua (AVEFA)) | percentage damage caused to the plant, AVEFA PRE (Avena fatua (AVEFA)) | percentage damage caused to the plant, ALOMY POST [1] | percentage damage caused to the plant, ALOMY PRE [1] | percentage damage caused to the plant, LOLPE POST (Lolium perenne (LOLPE)) | percentage damage caused to the plant, LOLPE PRE (Lolium perenne (LOLPE)) | percentage damage caused to the plant, SETFA POST (Setaria faberi (SETFA)) | percentage damage caused to the plant, SETFA PRE (Setaria faberi (SETFA)) | percentage damage caused to the plant, ECHCG POST [2] | percentage damage caused to the plant, ECHCG PRE [2]

CC#Cc1cc(C)c(C2C(=O)CC3(CCN(C(=O)C(Cl)Cl)CC3)CC2=O)c(C)c1 [Compound A28]
5 (5=80-100%): percentage damage caused to the plant, AVEFA POST (Avena fatua (AVEFA)) | percentage damage caused to the plant, AVEFA PRE (Avena fatua (AVEFA)) | percentage damage caused to the plant, ALOMY POST [1] | percentage damage caused to the plant, ALOMY PRE [1] | percentage damage caused to the plant, LOLPE POST (Lolium perenne (LOLPE)) | percentage damage caused to the plant, LOLPE PRE (Lolium perenne (LOLPE)) | percentage damage caused to the plant, SETFA POST (Setaria faberi (SETFA)) | percentage damage caused to the plant, SETFA PRE (Setaria faberi (SETFA)) | percentage damage caused to the plant, ECHCG POST [2] | percentage damage caused to the plant, ECHCG PRE [2]

CC#Cc1cc(C)c(C2=C(OC(=O)OC)CC3(CCN(C(C)=O)CC3)CC2=O)c(C)c1 [Compound P5]
5 (5=80-100%): percentage damage caused to the plant, AVEFA POST (Avena fatua (AVEFA)) | percentage damage caused to the plant, AVEFA PRE (Avena fatua (AVEFA)) | percentage damage caused to the plant, ALOMY POST [1] | percentage damage caused to the plant, ALOMY PRE [1] | percentage damage caused to the plant, LOLPE POST (Lolium perenne (LOLPE)) | percentage damage caused to the plant, LOLPE PRE (Lolium perenne (LOLPE)) | percentage damage caused to the plant, SETFA POST (Setaria faberi (SETFA)) | percentage damage caused to the plant, SETFA PRE (Setaria faberi (SETFA)) | percentage damage caused to the plant, ECHCG POST [2] | percentage damage caused to the plant, ECHCG PRE [2]

CC#Cc1cc(C)c(C2C(=O)CC3(CCN(C(C)=O)CC3)CC2=O)c(OC)c1 [Compound A15]
5 (5=80-100%): percentage damage caused to the plant, AVEFA POST (Avena fatua (AVEFA)) | percentage damage caused to the plant, AVEFA PRE (Avena fatua (AVEFA)) | percentage damage caused to the plant, ALOMY POST [1] | percentage damage caused to the plant, ALOMY PRE [1] | percentage damage caused to the plant, LOLPE POST (Lolium perenne (LOLPE)) | percentage damage caused to the plant, LOLPE PRE (Lolium perenne (LOLPE)) | percentage damage caused to the plant, SETFA POST (Setaria faberi (SETFA)) | percentage damage caused to the plant, SETFA PRE (Setaria faberi (SETFA)) | percentage damage caused to the plant, ECHCG POST [2] | percentage damage caused to the plant, ECHCG PRE [2]
